Values of other authors as cited in US12115137B2, “Synergistic combinations of atorvastatin and cannabidiol (CBD)” (Indication BioScience LLC, priority 2016, dated 2024).
One block for each molecule: values may come before it.

What was measured:
[1] = with potent CYP3A4 inhibitors such as itraconazole
[2] = target: CYP2C19 (Homo sapiens, UniProt P33261); settings: Jiang et al. 2013
[3] = oral, humans
[4] = target: CYP2C9 (Homo sapiens, UniProt P11712); settings: Jiang at 333 and references cited
[5] = target: CYP3A4 (Homo sapiens, UniProt P08684); settings: Yamaori et al. 2011
[6] = not given; remark: listed apart in the source

Sequence of CYP3A4 (P08684 whole entry): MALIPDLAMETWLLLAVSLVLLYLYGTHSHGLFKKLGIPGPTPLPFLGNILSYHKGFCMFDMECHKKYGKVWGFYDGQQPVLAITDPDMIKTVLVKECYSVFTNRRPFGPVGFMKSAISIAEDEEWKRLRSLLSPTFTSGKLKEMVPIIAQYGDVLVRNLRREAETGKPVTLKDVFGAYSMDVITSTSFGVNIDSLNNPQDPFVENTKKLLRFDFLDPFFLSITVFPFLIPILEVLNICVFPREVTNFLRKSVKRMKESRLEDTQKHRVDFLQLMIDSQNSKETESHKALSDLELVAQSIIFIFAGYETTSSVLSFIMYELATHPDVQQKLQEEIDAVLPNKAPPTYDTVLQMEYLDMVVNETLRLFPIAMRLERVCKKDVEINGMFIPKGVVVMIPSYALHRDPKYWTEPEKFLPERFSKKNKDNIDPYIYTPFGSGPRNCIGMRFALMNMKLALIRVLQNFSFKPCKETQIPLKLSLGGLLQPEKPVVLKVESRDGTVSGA
Sequence of CYP2C9 (P11712 whole entry): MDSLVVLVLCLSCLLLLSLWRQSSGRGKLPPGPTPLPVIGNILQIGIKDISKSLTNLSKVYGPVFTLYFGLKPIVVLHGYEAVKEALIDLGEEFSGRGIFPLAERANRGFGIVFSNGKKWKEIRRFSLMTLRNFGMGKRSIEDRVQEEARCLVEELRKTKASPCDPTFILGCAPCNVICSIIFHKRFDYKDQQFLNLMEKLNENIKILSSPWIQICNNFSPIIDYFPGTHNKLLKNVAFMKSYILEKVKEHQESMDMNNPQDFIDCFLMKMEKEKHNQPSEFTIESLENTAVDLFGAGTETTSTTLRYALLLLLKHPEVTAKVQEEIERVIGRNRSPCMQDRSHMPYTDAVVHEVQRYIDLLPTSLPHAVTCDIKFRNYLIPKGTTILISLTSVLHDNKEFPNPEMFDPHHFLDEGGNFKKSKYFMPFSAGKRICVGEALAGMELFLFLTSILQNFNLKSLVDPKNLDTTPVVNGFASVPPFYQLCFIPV
Sequence of CYP2C19 (P33261 whole entry): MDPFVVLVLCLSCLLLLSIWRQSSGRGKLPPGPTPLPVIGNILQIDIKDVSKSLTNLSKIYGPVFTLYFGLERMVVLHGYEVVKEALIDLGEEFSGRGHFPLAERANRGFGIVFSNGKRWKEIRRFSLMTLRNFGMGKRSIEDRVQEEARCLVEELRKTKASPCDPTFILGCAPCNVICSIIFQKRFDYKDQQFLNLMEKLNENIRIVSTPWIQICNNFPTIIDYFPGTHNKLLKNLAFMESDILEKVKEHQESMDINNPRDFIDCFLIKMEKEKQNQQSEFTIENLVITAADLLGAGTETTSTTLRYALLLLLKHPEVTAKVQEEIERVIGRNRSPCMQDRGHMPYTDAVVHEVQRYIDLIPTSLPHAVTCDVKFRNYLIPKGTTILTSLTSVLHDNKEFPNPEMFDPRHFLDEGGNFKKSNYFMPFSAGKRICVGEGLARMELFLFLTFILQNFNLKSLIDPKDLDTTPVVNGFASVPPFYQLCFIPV

increase in statin serum concentration [1]: two- to four-fold
Compound: CC(C)c1c(C(=O)Nc2ccccc2)c(-c2ccccc2)c(-c2ccc(F)cc2)n1CC[C@@H](O)C[C@@H](O)CC(=O)O [atorvastatin]

Compound: C=C(C)[C@@H]1CCC(C)=C[C@H]1c1c(O)cc(CCCCC)cc1O [CBD, 2-[(1R,6R)-6-isopropenyl-3-methylcyclohex-2-en-1-yl]-5-pentylbenzene-1,3-diol]
inhibition of CYP2C19 [2]: potent inhibitor
bioavailability of CBD administered orally [3]: approximately 6%
increase in plasma concentration of CBD (with ketoconazole, a strong inhibitor of CYP3A4): about two-fold
reduction of CBD levels (with rifampin, a CYP3A4 inducer): 50-60%
inhibition of CYP2C9 [4]: potent inhibitor
inhibition of CYP3A4 [5]: potent inhibitor

Compound: COCc1c(C(C)C)nc(C(C)C)c(/C=C/[C@@H](O)C[C@@H](O)CC(=O)O)c1-c1ccc(F)cc1 [cerivastatin]
deaths attributed to kidney failure from drug-related rhabdomyolysis ([6]; before market withdrawal in 2001): 52 deaths
rate of fatal rhabdomyolysis relative to other approved statins ([6]; compared with other approved statins): ten times more common
